Measured values taken from patent US20170081698A1, “SURVIVAL ASSAYS FOR METAKARYOTIC STEM CELLS” (priority 2014, published 2017).
“Also recorded” adds a separate entry of the source.

Experiments:
[1] = tested on: HT-29 cells; experiment: Survival assay counting large colonies of HT-29 cells plated as single cells in T-flasks, with replating of surviving colonies; format: cell-based, human; details: for sensitivity of eukaryotic cells relative to metakaryotes to killing: cultures of cells derived from human tumors; for nature of surviving colonies (metakaryotic cells, growth upon passaging): HT-29, appropriate concentrations and durations of exposure; for treatment level above which large colonies did not contain metakaryotic cells and did not grow further upon replating (mortal colonies): HT-29, concentration x duration of exposure; for stem cell number, by fraction of treated cells giving large, growing immortal colonies: HT-29 and CAPAN-1 lines; for exposure period required to assure killing greater than 99% of metakaryotic stem cells: HT-29 or CAPAN-1 cell cultures, certain concentrations; for number of immortal colonies: HT-29 cultures; for applicants' interpretation of selectivity (metakaryotic stem cells versus eukaryotic cells): HT-29 cell population
Description: Large colonies visible to the eye and containing approximately 250 or more cells are enumerated manually or by an electronic colony counter adjusted to recognize colonies of these sizes.
As a practical tactic, the total number of large colonies (>250 cells) are counted and the number appearing on […] to untreated plates identifies the treatment as having killed either or both colonies arising from eukaryotic non-stem cells or from metakaryotic stem cells.
The assay, in one embodiment, involved plating single cells from an exponentially growing HT-29 cell culture in plastic T-flasks and counting the large colonies apparent five weeks after plating. Untreated control flasks provided the total number of immortal colonies and larger mortal colonies.

[2] = tested on: HT-29 cells; experiment: Microscopic cytology of bell shaped metakaryotic nuclei in treated HT-29 cells (Hoechst, DAPI, Feulgen staining); format: cell-based, human; details: for aspect of bell shaped nuclei of metakaryotic colonies at the end of treatment: HT-29 colony assay flasks; for condensation of chromatin in bell shaped metakaryotic nuclei: HT-29 cultures
[3] = tested on: Capan-1 cells; experiment: Microscopic cytology of bell shaped metakaryotic nuclei in treated Capan-1 cells; details: Capan-1, equal to or greater than 10 micromolar for about one or more weeks
[4] = HT-29, 10 micromolar for 24 hours beginning 24 hours after seeding

Compound: CC[C@]1(O)C[C@@H]2CN(CCc3c([nH]c4ccccc34)[C@@](C(=O)OC)(c3cc4c(cc3OC)N(C)[C@H]3[C@@](O)(C(=O)OC)[C@H](OC(C)=O)[C@]5(CC)C=CCN6CC[C@]43[C@@H]65)C2)C1 [vinblastine]
- sensitivity of eukaryotic cells relative to metakaryotes to killing [1]: markedly more sensitive

Compound: CN(C)C(=N)N=C(N)N [metformin]
- further growth of remaining colonies upon trypsinized transfer ([1]; HT-29, 100, 200 and 400 micromolar, five weeks): do not demonstrate further growth
- nature of surviving colonies (metakaryotic cells, growth upon passaging) [1]: did not contain discernable metakaryotic cells nor were they capable of continued growth upon passaging
- treatment level above which large colonies did not contain metakaryotic cells and did not grow further upon replating (mortal colonies) [1]: > 200 micromolar weeks
- further decrease in total large colony count ([1]; HT-29, treatment range ~200 to 2000 micromolar weeks): No further significant decrease
- reduction of the total number of large colonies ([1]; HT-29, ~1000 cells per flask, treatment levels from zero to ~100 micromolar weeks): about 10%
- stem cell number, by fraction of treated cells giving large, growing immortal colonies [1]: reduction of stem cell number
- exposure period required to assure killing greater than 99% of metakaryotic stem cells [1]: not less than six
- nuclear chromatin condensation in metakaryotic versus eukaryotic cell nuclei ([2]; 200-2000 micromolar-weeks): metakaryotic but not eukaryotic cell nuclei display nuclear chromatin condensation
- aspect of bell shaped nuclei of metakaryotic colonies at the end of treatment [2]: displayed recognizable deformed aspects

Compound: C[C@H]1c2cccc(O)c2C(=O)C2=C(O)[C@]3(O)C(=O)C(C(N)=O)=C(O)[C@@H](N(C)C)[C@@H]3[C@@H](O)[C@@H]21 [doxycycline]
- treatment level above which large colonies did not contain metakaryotic cells and did not grow further upon replating (mortal colonies) [1]: higher than 4 micromolar weeks
- reduction of the total number of large colonies ([1]; HT-29, two weeks beginning one day after transfer, zero to ~10 micromolar): about 8%

Compound: COc1cc2c(c(OC)c1OC)-c1ccc(OC)c(=O)cc1[C@@H](NC(C)=O)CC2 [colchicine]
- sensitivity of eukaryotic cells relative to metakaryotes to killing [1]: markedly more sensitive

Compound: CC(C)Cc1ccc(C(C)C(=O)O)cc1 (stereo not drawn) [ibuprofen]
- number of immortal colonies [1]: reduce the number of immortal colonies
- condensation of chromatin in bell shaped metakaryotic nuclei [2]: do not induce the condensation of chromatin

Compound: COc1ccc2cc([C@H](C)C(=O)O)ccc2c1 [naproxen]
- number of immortal colonies [1]: reduce the number of immortal colonies

Compound: Cc1ccc(-c2cc(C(F)(F)F)nn2-c2ccc(S(N)(=O)=O)cc2)cc1 [Celecoxib]
- treatment level above which large colonies did not contain metakaryotic cells and did not grow further upon replating (mortal colonies) [1]: higher than 10 micromolar weeks
- reduction of the total number of large colonies ([1]; HT-29, two weeks beginning one day after transfer, ~2 to ~32 micromolar): about 10%

Compound: COc1ccc(CCN(C)CCCC(C#N)(c2ccc(OC)c(OC)c2)C(C)C)cc1OC (stereo not drawn) [verapamil]
- nature of surviving colonies (metakaryotic cells, growth upon passaging) [1]: did not contain discernable metakaryotic cells nor were they capable of continued growth upon passaging
- stem cell number, by fraction of treated cells giving large, growing immortal colonies [1]: reduction of stem cell number
- exposure period required to assure killing greater than 99% of metakaryotic stem cells [1]: not less than six
- fluorescent structures in the cytoplasmic organelle of metakaryotic cells (dsDNA dyes Hoechst, DAPI) ([2]; HT-29, about one or more weeks of treatment): novel large bar structure; also recorded: bright blue fluorescent bars, crosses and more complex figures are observed
- chromatin in bell shaped nuclei after Feulgen staining ([2]; HT-29, e.g. 10 micromolar for about one or more weeks): condensed into rope like structures
- pyknotic bell shaped nuclei with condensed chromatin ([2]; HT-29 and CAPAN-1 cell cultures): dead (pyknotic) bell shaped metakaryotic cell nuclei; also recorded: pyknotic structures with bell shaped nuclei displaying grossly condensed chromatin structures
- condensation of chromatin in bell shaped metakaryotic nuclei [2]: observed
- nuclei of metakaryotic stem cells [3]: pyknotic nuclei

Compound: O=C(O)CCCc1ccc(N(CCCl)CCCl)cc1 [chlorambucil]
- surviving large colonies ([1]; HT-29, ~3000 cells per flask, one day exposure, greater than ~10 micromolar): reduced the surviving large colonies monotonically to zero without displaying a plateau
- sensitivity of eukaryotic cells relative to metakaryotes to killing [1]: markedly more sensitive

Compound: CC(=O)Nc1ccc(O)cc1 [acetaminophen]
- nature of surviving colonies (metakaryotic cells, growth upon passaging) [1]: did not contain discernable metakaryotic cells nor were they capable of continued growth upon passaging
- treatment level above which large colonies did not contain metakaryotic cells and did not grow further upon replating (mortal colonies) [1]: higher than 10 micromolar weeks
- reduction of the total number of large colonies ([1]; HT-29, two weeks beginning one day after transfer, ~5 to ~25 micromolar): about 10%
- effect of higher concentrations on cells ([1]; HT-29, two weeks, concentrations higher than the range of the figure): killed all cells
- stem cell number, by fraction of treated cells giving large, growing immortal colonies [1]: reduction of stem cell number
- applicants' interpretation of selectivity (metakaryotic stem cells versus eukaryotic cells) [1]: exterminated the metakaryotic stem cells but were not cytotoxic to the eukaryotic non-stem cells
- number of immortal colonies [1]: reduce the number of immortal colonies
- aspect of bell shaped nuclei of metakaryotic colonies at the end of treatment [2]: did not display recognizable deformed pyknotic aspects
- condensation of chromatin in bell shaped metakaryotic nuclei [2]: do not induce the condensation of chromatin

Compound: O=c1[nH]c(=O)n([C@H]2C[C@H](O)[C@@H](CO)O2)cc1C(F)(F)F [trifluorothymidine]
- effect on eukaryotic cells [1, 4]: kills nearly all eukaryotic cells
- effect on survival of metakaryotic cells [1, 4]: no detectable effect
- nature of surviving large colonies (metakaryotic cells, growth upon replating) ([1]; HT-29, 24 hour exposure, ~7 to 17 micromolar): immortal and displayed visible metakaryotic cells by the 64 cell colony forming stage; also recorded: contained metakaryotic cells and grew continuously upon replating; also recorded: contained metakaryotic cells upon microscopic inspection and demonstrated the ability to grow continuously upon passaging
- applicants' interpretation of selectivity (metakaryotic stem cells versus eukaryotic cells) [1]: exterminated the eukaryotic cells in the HT-29 cell population studied but was not toxic to the metakaryotic stem cells
- sensitivity of eukaryotic cells relative to metakaryotes to killing [1]: markedly more sensitive
